Results as given in ChEMBL document CHEMBL4831488, “Design, synthesis, docking, molecular dynamics and bioevaluation studies on novel N-methylpicolinamide and thienopyrimidine derivatives with inhibiting NF-κB and TAK1 activities: Cheminformatics tools RDKit applied in drug design” (Eur J Med Chem, 2021).
Active and inactive are the calls of the source. The calls are words filed in the database; no cut-off is given here.

Columns and labels:
HCT-116 [1] = experiment: Cytotoxicity against human HCT-116 cells assessed as inhibition of cell growth measured after 72 hrs by MTT assay; type: functional, cell-based; settings: HCT-116, 72 h
MDA-MB-231 = experiment: Cytotoxicity against human MDA-MB-231 cells assessed as inhibition of cell growth at 20 uM measured after 72 hrs by MTT assay relative to control; type: functional
HCT-116 [2] = experiment: Cytotoxicity against human HCT-116 cells assessed as inhibition of cell growth at 20 uM measured after 72 hrs by MTT assay relative to control; type: functional
A549 [3] = experiment: Cytotoxicity against human A549 cells assessed as inhibition of cell growth at 20 uM measured after 72 hrs by MTT assay relative to control; type: functional
A549 [4] = experiment: Cytotoxicity against human A549 cells assessed as inhibition of cell growth measured after 72 hrs by MTT assay; type: functional, cell-based; settings: Homo sapiens, A549, 72 h; read-out: IC50
A549 [5] = experiment: Cell cycle arrest in human A549 cells assessed as accumulation at G2/M phase at 0.6 uM measured after 24 hrs by PI staining based Flow cytometry method (reference value: 10.2%); type: functional
A549 [6] = experiment: Cell cycle arrest in human A549 cells assessed as accumulation at G0/G1 phase at 1.2 uM measured after 24 hrs by PI staining based Flow cytometry method (reference value: 55.54%); type: functional
A549 [7] = experiment: Cell cycle arrest in human A549 cells assessed as accumulation at G2/M phase at 1.2 uM measured after 24 hrs by PI staining based Flow cytometry method (reference value: 10.2%); type: functional
A549 [8] = experiment: Cell cycle arrest in human A549 cells assessed as accumulation at S phase at 1.2 uM measured after 24 hrs by PI staining based Flow cytometry method (reference value: 34.24%); type: functional
A549 [9] = experiment: Cell cycle arrest in human A549 cells assessed as accumulation at G2/M phase at 1.8 uM measured after 24 hrs by PI staining based Flow cytometry method (reference value: 10.2%); type: functional
HCT-116 [10] = experiment: Cell cycle arrest in human HCT-116 cells assessed as accumulation at G2/M phase at 1.8 uM measured after 24 hrs by PI staining based Flow cytometry method; type: functional
A549 [11] = experiment: Induction of apoptosis in human A549 cells assessed as viable cells at 0.6 uM measured by annexinV-FITC/propidium iodide staining based flow cytometry analysis (reference value: 97.8%); type: functional; settings: read-out: Activity
A549 [12] = experiment: Induction of apoptosis in human A549 cells assessed as early apoptotic cells at 0.6 uM measured by annexinV-FITC/propidium iodide staining based flow cytometry analysis (reference value: 1.17%); type: functional
A549 [13] = experiment: Induction of apoptosis in human A549 cells assessed as late apoptotic cells at 0.6 uM measured by annexinV-FITC/propidium iodide staining based flow cytometry analysis (reference value: 0.64%); type: functional
A549 [14] = experiment: Induction of apoptosis in human A549 cells assessed as viable cells at 1.2 uM measured by annexinV-FITC/propidium iodide staining based flow cytometry analysis (reference value: 97.8%); type: functional; settings: read-out: Activity
A549 [15] = experiment: Induction of apoptosis in human A549 cells assessed as early apoptotic cells at 1.2 uM measured by annexinV-FITC/propidium iodide staining based flow cytometry analysis (reference value: 1.17%); type: functional
A549 [16] = experiment: Induction of apoptosis in human A549 cells assessed as late apoptotic cells at 1.2 uM measured by annexinV-FITC/propidium iodide staining based flow cytometry analysis (reference value: 0.64%); type: functional
A549 [17] = experiment: Induction of apoptosis in human A549 cells assessed as necrotic cells at 1.2 uM measured by annexinV-FITC/propidium iodide staining based flow cytometry analysis (reference value: 0.42%); type: functional
A549 [18] = experiment: Induction of apoptosis in human A549 cells assessed as viable cells at 1.8 uM measured by annexinV-FITC/propidium iodide staining based flow cytometry analysis (reference value: 97.8%); type: functional; settings: read-out: Activity
A549 [19] = experiment: Induction of apoptosis in human A549 cells assessed as early apoptotic cells at 1.8 uM measured by annexinV-FITC/propidium iodide staining based flow cytometry analysis (reference value: 1.17%); type: functional
A549 [20] = experiment: Induction of apoptosis in human A549 cells assessed as late apoptotic cells at 1.8 uM measured by annexinV-FITC/propidium iodide staining based flow cytometry analysis (reference value: 0.64%); type: functional
A549 [21] = experiment: Induction of apoptosis in human A549 cells assessed as necrotic cells at 1.8 uM measured by annexinV-FITC/propidium iodide staining based flow cytometry analysis (reference value: 0.42%); type: functional
HCT-116 [22] = experiment: Induction of apoptosis in human HCT-116 cells assessed as early apoptotic cells at 1.8 uM measured by annexinV-FITC/propidium iodide staining based flow cytometry analysis; type: functional
[23] = target: T1, Nuclear factor NF-kappa-B complex (Homo sapiens) (UniProt Q00653+P19838+Q04206); experiment: Inhibition of human NF-kB in human HCT-116 cells assessed as suppression of TNF-alpha induced p-65 expression at 0.5 to 5 uM pretreated with compounds for 24 hrs followed by TNF-alpha stimulation for 10 mins by Western blot analysis; type: cell-based; settings: dose 0.5-5 µM, time 1450.0 min
[24] = target: T1, Nuclear factor NF-kappa-B complex (Homo sapiens); experiment: Inhibition of human NF-kB in human HCT-116 cells assessed as suppression of TNF-alpha induced p-65 phosphorylation at 0.5 to 5 uM pretreated with compounds for 24 hrs followed by TNF-alpha stimulation for 10 mins by Western blot analysis; type: cell-based; settings: dose 0.5-5 µM, time 1450.0 min
[25] = target: T1, Nuclear factor NF-kappa-B complex (Homo sapiens); experiment: Inhibition of human NF-kB in human HCT-116 cells assessed as suppression of TNF-alpha induced IkBalpha expression at 0.5 to 5 uM pretreated with compounds for 24 hrs followed by TNF-alpha stimulation for 10 mins by Western blot analysis; type: cell-based; settings: dose 0.5-5 µM, time 1450.0 min
[26] = target: T1, Nuclear factor NF-kappa-B complex (Homo sapiens); experiment: Inhibition of human NF-kB in human HCT-116 cells assessed as suppression of TNF-alpha induced IkBalpha phosphorylation at 0.5 to 5 uM pretreated with compounds for 24 hrs followed by TNF-alpha stimulation for 10 mins by Western blot analysis; type: cell-based; settings: dose 0.5-5 µM, time 1450.0 min
[27] = target: T1, Nuclear factor NF-kappa-B complex (Homo sapiens); experiment: Inhibition of human NF-kB in human HCT-116 cells assessed as suppression of TNF-alpha induced TAK1 expression at 0.5 to 5 uM pretreated with compounds for 24 hrs followed by TNF-alpha stimulation for 10 mins by Western blot analysis; type: cell-based; settings: dose 0.5-5 µM, time 1450.0 min
[28] = target: T1, Nuclear factor NF-kappa-B complex (Homo sapiens); experiment: Inhibition of human NF-kB in human HCT-116 cells assessed as suppression of TNF-alpha induced TAK1 phosphorylation at 0.5 to 5 uM pretreated with compounds for 24 hrs followed by TNF-alpha stimulation for 10 mins by Western blot analysis; type: cell-based; settings: dose 0.5-5 µM, time 1450.0 min
[29] = target: T1, Nuclear factor NF-kappa-B complex (Homo sapiens); experiment: Inhibition of human NF-kB in human A549 cells assessed as suppression of TNF-alpha induced p-65 expression at 0.5 to 5 uM pretreated with compounds for 24 hrs followed by TNF-alpha stimulation for 10 mins by Western blot analysis; type: cell-based; settings: dose 0.5-5 µM, time 1450.0 min
[30] = target: T1, Nuclear factor NF-kappa-B complex (Homo sapiens); experiment: Inhibition of human NF-kB in human A549 cells assessed as suppression of TNF-alpha induced p-65 phosphorylation at 0.5 to 5 uM pretreated with compounds for 24 hrs followed by TNF-alpha stimulation for 10 mins by Western blot analysis; type: cell-based; settings: dose 0.5-5 µM, time 1450.0 min
[31] = target: T1, Nuclear factor NF-kappa-B complex (Homo sapiens); experiment: Inhibition of human NF-kB in human A549 cells assessed as suppression of TNF-alpha induced IkBalpha expression at 0.5 to 5 uM pretreated with compounds for 24 hrs followed by TNF-alpha stimulation for 10 mins by Western blot analysis; type: cell-based; settings: dose 0.5-5 µM, time 1450.0 min

T1 sequence (P19838 whole entry, looked up): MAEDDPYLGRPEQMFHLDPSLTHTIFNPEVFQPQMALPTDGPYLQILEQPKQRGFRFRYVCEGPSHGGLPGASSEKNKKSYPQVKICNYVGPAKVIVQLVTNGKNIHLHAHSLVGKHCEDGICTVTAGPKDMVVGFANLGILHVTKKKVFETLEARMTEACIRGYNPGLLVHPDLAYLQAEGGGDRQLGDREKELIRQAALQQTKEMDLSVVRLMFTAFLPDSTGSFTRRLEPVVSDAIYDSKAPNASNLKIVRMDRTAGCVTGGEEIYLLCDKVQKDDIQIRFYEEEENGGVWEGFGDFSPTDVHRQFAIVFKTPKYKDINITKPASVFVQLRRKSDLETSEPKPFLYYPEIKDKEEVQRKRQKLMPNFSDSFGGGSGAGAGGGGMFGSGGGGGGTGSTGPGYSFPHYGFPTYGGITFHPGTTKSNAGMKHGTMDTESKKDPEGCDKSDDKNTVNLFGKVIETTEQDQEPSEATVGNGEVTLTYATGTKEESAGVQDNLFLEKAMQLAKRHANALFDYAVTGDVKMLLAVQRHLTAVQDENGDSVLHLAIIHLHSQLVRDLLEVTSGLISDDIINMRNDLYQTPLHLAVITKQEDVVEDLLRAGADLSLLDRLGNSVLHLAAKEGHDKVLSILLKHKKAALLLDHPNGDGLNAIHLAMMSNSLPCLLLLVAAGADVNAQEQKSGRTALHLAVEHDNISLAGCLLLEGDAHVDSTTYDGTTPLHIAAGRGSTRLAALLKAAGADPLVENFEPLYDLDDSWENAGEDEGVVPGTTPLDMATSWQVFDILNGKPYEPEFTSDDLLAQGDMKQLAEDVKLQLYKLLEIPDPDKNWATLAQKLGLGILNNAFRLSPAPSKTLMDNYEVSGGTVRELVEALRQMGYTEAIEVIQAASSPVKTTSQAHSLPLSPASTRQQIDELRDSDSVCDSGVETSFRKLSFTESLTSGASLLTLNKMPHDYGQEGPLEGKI
T1 sequence (Q00653 whole entry, looked up): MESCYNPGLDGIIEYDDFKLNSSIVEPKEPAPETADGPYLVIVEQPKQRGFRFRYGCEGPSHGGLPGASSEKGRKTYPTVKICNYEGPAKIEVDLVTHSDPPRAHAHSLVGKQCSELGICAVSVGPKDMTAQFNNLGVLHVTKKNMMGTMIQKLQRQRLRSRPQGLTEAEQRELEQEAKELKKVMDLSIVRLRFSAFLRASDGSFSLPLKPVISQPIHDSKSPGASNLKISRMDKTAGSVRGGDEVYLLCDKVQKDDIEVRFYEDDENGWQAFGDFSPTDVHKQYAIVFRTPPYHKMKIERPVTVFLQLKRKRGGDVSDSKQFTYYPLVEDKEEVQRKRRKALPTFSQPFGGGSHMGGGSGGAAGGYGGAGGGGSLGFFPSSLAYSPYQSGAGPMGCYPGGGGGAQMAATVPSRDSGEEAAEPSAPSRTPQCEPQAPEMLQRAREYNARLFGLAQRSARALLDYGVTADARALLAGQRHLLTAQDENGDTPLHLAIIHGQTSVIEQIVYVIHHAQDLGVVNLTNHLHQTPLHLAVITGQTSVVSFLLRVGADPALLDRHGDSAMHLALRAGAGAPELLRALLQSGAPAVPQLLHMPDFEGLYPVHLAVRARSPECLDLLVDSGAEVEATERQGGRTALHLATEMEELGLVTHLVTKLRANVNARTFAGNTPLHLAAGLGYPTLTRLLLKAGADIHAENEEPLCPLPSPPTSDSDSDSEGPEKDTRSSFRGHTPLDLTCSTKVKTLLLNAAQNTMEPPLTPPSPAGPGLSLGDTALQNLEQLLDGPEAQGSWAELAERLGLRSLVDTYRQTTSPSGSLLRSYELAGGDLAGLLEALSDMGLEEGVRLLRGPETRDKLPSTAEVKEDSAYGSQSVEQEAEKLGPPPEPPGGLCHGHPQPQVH
T1 sequence (Q04206 whole entry, looked up): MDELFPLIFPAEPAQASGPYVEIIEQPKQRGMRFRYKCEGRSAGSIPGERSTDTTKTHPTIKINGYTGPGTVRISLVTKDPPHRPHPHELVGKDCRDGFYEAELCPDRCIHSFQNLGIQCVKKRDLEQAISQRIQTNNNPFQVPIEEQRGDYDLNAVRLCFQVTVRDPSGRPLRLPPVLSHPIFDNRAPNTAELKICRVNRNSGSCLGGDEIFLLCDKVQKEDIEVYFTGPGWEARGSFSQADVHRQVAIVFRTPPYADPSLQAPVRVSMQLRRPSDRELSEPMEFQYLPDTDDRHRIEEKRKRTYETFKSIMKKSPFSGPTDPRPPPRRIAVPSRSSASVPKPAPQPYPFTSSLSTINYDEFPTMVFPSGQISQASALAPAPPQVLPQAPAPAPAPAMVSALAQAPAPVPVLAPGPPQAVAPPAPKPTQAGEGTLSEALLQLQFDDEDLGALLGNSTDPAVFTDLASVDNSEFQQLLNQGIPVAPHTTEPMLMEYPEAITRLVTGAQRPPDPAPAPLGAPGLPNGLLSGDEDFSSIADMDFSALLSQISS

inhibition [23]: Active
inhibition [24]: Active
inhibition [25]: Active
inhibition [26]: Active
inhibition [27]: Active
inhibition [28]: Active
inhibition [29]: Active
inhibition [30]: Active
inhibition [31]: Active
SMILES: CNC(=O)c1cc(Oc2ccc(Nc3nccc(N4CCCCC4)n3)cc2)ccn1
IC50 (HCT-116 [1]): 0.54 µM
inhibition at 20 µM (MDA-MB-231): 52.3%
inhibition at 20 µM (HCT-116 [2]): 69.8%
inhibition at 20 µM (A549 [3]): 63.4%
IC50 (A549 [4]): 0.89 µM
Activity (A549 [5]): 15.91%
Activity (A549 [6]): 57.49%
Activity (A549 [7]): 23.68%
Activity (A549 [8]): 18.83%
Activity (A549 [9]): 30.57%
Activity (HCT-116 [10]): 36.72%
viability at 0.6 µM (A549 [11]): 87.6%
Activity (A549 [12]): 8.16%
Activity (A549 [13]): 3.46%
viability at 1.2 µM (A549 [14]): 80.6%
Activity (A549 [15]): 12.9%
Activity (A549 [16]): 5.7%
Activity (A549 [17]): 0.74%
viability at 1.8 µM (A549 [18]): 64.4%
Activity (A549 [19]): 25.4%
Activity (A549 [20]): 9.54%
Activity (A549 [21]): 0.71%
Activity (HCT-116 [22]): 71.4%
